Measurements taken from patent publication US20140017223A1, “Pharmaceutical Compositions Comprising A Pancreatic Enzyme Preparation With Viral Infectivity Reduced Below A Significant Level And Methods Of Preparing And Using The Same” (Aptalis Pharma Canada Inc., priority 2010, published 2014).

Legend:
protease = assay: Protease activity of pancrelipase after BPL treatment, freezing and lyophilization (USP 31 method); type: biochemical; settings: for Loss of Protease Activity: pancrelipase, freezing, lyophilization, precision 5-10%
Experimental: Enzymatic activity for the enzymes of a PEP (e.g., proteases, lipases, and amylases) can be determined, for example, by using the United States Pharmacopeia (USP) monographed methods (The United States Pharmacopeia and the National Formulary (USP 31/NF 26). 2008. Rockville (MD): United States Pharmacopeial Convention, Inc.).
The samples c-d from all the experiments were tested for lipase, protease, and amylase enzymatic activity using USP 31 monographed methods. See Example 11 and Table 11.
Table 11 presents the lipase, protease, and amylase activity for aliquots of the pancrelipase after BPL treatment for 30 min at 25° C. followed by freezing and lyophilization (same treatment as for samples in Example 10).

PPV [1] = assay: Inactivation of PPV by BPL (30 min, 25° C.) measured from frozen and lyophilized samples (Example 10); type: cell-based, porcine parvovirus (PPV)
Experimental: 4.5 g pancrelipase (PEP) powder was dissolved in 44 ml ice cold 100 mM Tris (pH=8.3) by frequently mixing a 50-ml plastic tube that was kept on ice most of the time except when shaking. The dissolved sample was spiked with 1 ml (2×0.5 ml) PPV stock (prepared at the Institut National de la Recherche Scientifique, Québec, Canada using standard protocols (Arella et al., Physicichemical properties, production, and purification of parvoviruses. 1990, In Tijssen, P. (ed.), CRC handbook of parvoviruses. Boca Raton, Fla.: CRC Press, 11-30)) 10^7 FFID50/ml; see Example 8 and Table 8) and was mixed for another 10 minutes.
Three aliquots of the dissolved pancrelipase were transferred into tubes (A-C) and kept on ice while (A) no BPL—the control), (B) (0.4 vol % BPL), or (C) (0.8 vol % BPL) was added to them. After a brief mixing by a vortex machine, the tubes were incubated for 30 minutes at 25° C. At the end of the incubation, the tubes were transferred on to ice and immediately four aliquots were transferred from each experimental condition into new tubes (a-d). These tubes were placed into the mixture of acetone/dry ice for fast freezing. Later, the samples were stored at −80° C.
The experiment above was repeated two more times (altogether: experiments 1-3).
The frozen samples were lyophilized at −45° C. for two days, and the pancrelipase powders were kept at 4-10° C. Samples a-b from all the experiments were dissolved in water. Infectivity measurements were done with diluted samples using the 400 times diluted samples as the lowest dilution step to determine the FFID50. To easily compare the results for the different experiments, all of the obtained infectivity data were converted to specific infectivity (FFID50/gram PEP). See Example 10 and Table 10.
Inactivation results for PEP samples containing PPV inactivated by BPL at 25° C. for 30 min which was subsequently inactivated by freezing followed by lyophilization are presented in Table 10.

PPV [2] = assay: Inactivation of spiked PPV in pancrelipase (PEP) by BPL, PPV titered by dilution method (Example 1); type: cell-based, porcine parvovirus (PPV); settings: 48 h, 20° C.; for Detected PPV Titer: 0*=below detection limit of 10^3 FFID50/g
Experimental: For example, two preparations can be tested for PPV or another virus on one 96-well plate, with the positive controls incubated on another parallel plate. For PPV the samples can be serially diluted (for example, 1:4 in each step for a total of 8 dilutions) in cell culture medium prior to application and incubated with cell cultures for at least 5 days at 37° C. in 5% CO2. After sample removal and the fixation of the cells by paraformaldehyde, the presence of PPV (or other) virus infection is monitored in each well by an anti-PPV antibody using a standard immunofluorescent assay. The number of wells that contain positively stained cells are recorded in a table. Fluorescence Focus Infectious Doses (FFID50) are calculated according to the Karber formula: […]
All data are recalculated for 1-gram dry PEP, e.g., pancrelipase, sample after the consideration of processed sample volumes and dilutions. In certain embodiments, the assay is repeated several times using six parallel wells to quantify the level of infectious viruses.
Pancrelipase powders from 2 different lots were each dissolved in 100 mM Tris, pH=8.3, at a concentration of 100 mg/ml. Two ml non-purified PPV viral stock (prepared using standard protocols (Arella et al., Physicichemical properties, production, and purification of parvoviruses. 1990, In Tijssen, P. (ed.), CRC handbook of parvoviruses. Boca Raton, Fla.: CRC Press, 11-30)) were added to 38 ml of the pancrelipase solution. The virus was mixed with the PEP using slow shaking at room temperature for one day. Aliquots were taken from the PPV-spiked pancrelipase stocks and each was incubated with different concentrations of BPL (available from Sigma-Aldrich, St. Louis, Mo.) (except the control) for 48 hours at room temperature (20° C.). The level of viral inactivation was measured by the titration of PPV infectivity using serial dilutions of 1,000 times or more since the titer of spiked virus was high. Determination of the FFID50 was performed using the fluorescence assay as described in the PPV FFID-infectivity assay of U.S. Patent Publication No. 2009/0226414.

O=C1CCO1 [BPL, Beta-propiolactone]
Protease activity maintained (protease; lyophilized samples treated with 0.4% BPL and 0.8% BPL): maintained the majority
Loss of Protease Activity (protease; 0.4% BPL 30 min 25° C.): 0%
Loss of Protease Activity (protease; 0.8% BPL 30 min 25° C.): 0%
Reduction of PPV titer (PPV [1]; 0.4% BPL): 0.27 × 10^3 FFID50/g
Reduction of PPV titer (PPV [1]; 0.8% BPL): 1.55 × 10^6 FFID50/g
Average Results (per sample a/b) (PPV [1]; 0.8% BPL, 0* means under detection limit): < 0* FFID50/g
Average Results (per experiment) (PPV [1]; 0.8% BPL, experiments C1-C3, 0* means under detection limit): < 0* FFID50/g
PPV infectivity (single determinations) (PPV [1]; 0.8% BPL, samples C1a-C3b, 0* means under detection limit): < 0* FFID50/g
PPV Titer reduction (PPV [2]; PEP #1, 0.1% (v/v) BPL): 2.37 × 10^3 FFID50/g
Detected PPV Titer (PPV [2]; PEP #1, 0.1% (v/v) BPL): 4.22 × 10^4 FFID50/g
PPV Titer reduction (PPV [2]; PEP #1, 0.2% (v/v) BPL): >10^5 FFID50/g
Detected PPV Titer (PPV [2]; PEP #1, 0.2% (v/v) BPL): < 0* FFID50/g
PPV Titer reduction (PPV [2]; PEP #1, 0.4% (v/v) BPL): >10^5 FFID50/g
Detected PPV Titer (PPV [2]; PEP #1, 0.4% (v/v) BPL): < 0* FFID50/g
PPV Titer reduction (PPV [2]; PEP #1, 0.8% (v/v) BPL): >10^5 FFID50/g
Detected PPV Titer (PPV [2]; PEP #1, 0.8% (v/v) BPL): < 0* FFID50/g
PPV Titer reduction (PPV [2]; PEP #2, 0.1% (v/v) BPL): 2.37 × 10^3 FFID50/g
Detected PPV Titer (PPV [2]; PEP #2, 0.1% (v/v) BPL): 4.22 × 10^4 FFID50/g
PPV Titer reduction (PPV [2]; PEP #2, 0.2% (v/v) BPL): >10^5 FFID50/g
Detected PPV Titer (PPV [2]; PEP #2, 0.2% (v/v) BPL): < 0* FFID50/g
PPV Titer reduction (PPV [2]; PEP #2, 0.4% (v/v) BPL): >10^5 FFID50/g
Detected PPV Titer (PPV [2]; PEP #2, 0.4% (v/v) BPL): < 0* FFID50/g
PPV Titer reduction (PPV [2]; PEP #2, 0.8% (v/v) BPL): >10^5 FFID50/g
Detected PPV Titer (PPV [2]; PEP #2, 0.8% (v/v) BPL): < 0* FFID50/g
PPV Titer reduction (PPV [2]; PEP #3, 0.1% (v/v) BPL): 4.22 × 10^3 FFID50/g
Detected PPV Titer (PPV [2]; PEP #3, 0.1% (v/v) BPL): 5.62 × 10^4 FFID50/g
PPV Titer reduction (PPV [2]; PEP #3, 0.2% (v/v) BPL): >10^5 FFID50/g
Detected PPV Titer (PPV [2]; PEP #3, 0.2% (v/v) BPL): < 0* FFID50/g
PPV Titer reduction (PPV [2]; PEP #3, 0.4% (v/v) BPL): >10^5 FFID50/g
Detected PPV Titer (PPV [2]; PEP #3, 0.4% (v/v) BPL): < 0* FFID50/g
PPV Titer reduction (PPV [2]; PEP #3, 0.8% (v/v) BPL): >10^5 FFID50/g
Detected PPV Titer (PPV [2]; PEP #3, 0.8% (v/v) BPL): < 0* FFID50/g
PPV Titer reduction (PPV [2]; PEP #4, 0.1% (v/v) BPL): 1.33 × 10^8 FFID50/g
Detected PPV Titer (PPV [2]; PEP #4, 0.1% (v/v) BPL): < 0* FFID50/g
PPV Titer reduction (PPV [2]; PEP #4, 0.2% (v/v) BPL): >10^5 FFID50/g
Detected PPV Titer (PPV [2]; PEP #4, 0.2% (v/v) BPL): < 0* FFID50/g
PPV Titer reduction (PPV [2]; PEP #4, 0.4% (v/v) BPL): >10^5 FFID50/g
Detected PPV Titer (PPV [2]; PEP #4, 0.4% (v/v) BPL): < 0* FFID50/g
PPV Titer reduction (PPV [2]; PEP #4, 0.8% (v/v) BPL): >10^5 FFID50/g
Detected PPV Titer (PPV [2]; PEP #4, 0.8% (v/v) BPL): < 0* FFID50/g
